US9452992B2 (priority 2011, dated 2016)
Entries after “also recorded” stand apart in the source; their conditions may differ.

How the values were obtained:
[1] = tested on: thermolysin-cleaved VSV EboV GP particles; format: cell-based, Ebola virus Zaire
[2] = tested on: EBOV Zaire-1995; format: cell-based, Ebola virus Zaire; settings: 96 h
[3] = molecular target: binding of cleaved EboV GPΔTM to NPC1 membranes (Mus musculus, UniProt O35604)
[4] = tested on: VSV particles pseudotyped with EboV Zaire GP; format: cell-based, Ebola virus Zaire
[5] = tested on: VSV particles pseudotyped with VSV G; format: cell-based, vesicular stomatitis virus
[6] = molecular target: cathepsin B (Homo sapiens, UniProt P07858); format: biochemical
[7] = tested on: HeLa cells; format: cell-based, human
[8] = molecular target: T1, NPC1 (Homo sapiens, UniProt O15118); format: binding
T1 construct: expressed in transfected cells; host or cells: CHO/NPC1-1 (CHOhNPC1) cells; 15,000 g membrane pellet
T1 sequence (O15118 23-1278): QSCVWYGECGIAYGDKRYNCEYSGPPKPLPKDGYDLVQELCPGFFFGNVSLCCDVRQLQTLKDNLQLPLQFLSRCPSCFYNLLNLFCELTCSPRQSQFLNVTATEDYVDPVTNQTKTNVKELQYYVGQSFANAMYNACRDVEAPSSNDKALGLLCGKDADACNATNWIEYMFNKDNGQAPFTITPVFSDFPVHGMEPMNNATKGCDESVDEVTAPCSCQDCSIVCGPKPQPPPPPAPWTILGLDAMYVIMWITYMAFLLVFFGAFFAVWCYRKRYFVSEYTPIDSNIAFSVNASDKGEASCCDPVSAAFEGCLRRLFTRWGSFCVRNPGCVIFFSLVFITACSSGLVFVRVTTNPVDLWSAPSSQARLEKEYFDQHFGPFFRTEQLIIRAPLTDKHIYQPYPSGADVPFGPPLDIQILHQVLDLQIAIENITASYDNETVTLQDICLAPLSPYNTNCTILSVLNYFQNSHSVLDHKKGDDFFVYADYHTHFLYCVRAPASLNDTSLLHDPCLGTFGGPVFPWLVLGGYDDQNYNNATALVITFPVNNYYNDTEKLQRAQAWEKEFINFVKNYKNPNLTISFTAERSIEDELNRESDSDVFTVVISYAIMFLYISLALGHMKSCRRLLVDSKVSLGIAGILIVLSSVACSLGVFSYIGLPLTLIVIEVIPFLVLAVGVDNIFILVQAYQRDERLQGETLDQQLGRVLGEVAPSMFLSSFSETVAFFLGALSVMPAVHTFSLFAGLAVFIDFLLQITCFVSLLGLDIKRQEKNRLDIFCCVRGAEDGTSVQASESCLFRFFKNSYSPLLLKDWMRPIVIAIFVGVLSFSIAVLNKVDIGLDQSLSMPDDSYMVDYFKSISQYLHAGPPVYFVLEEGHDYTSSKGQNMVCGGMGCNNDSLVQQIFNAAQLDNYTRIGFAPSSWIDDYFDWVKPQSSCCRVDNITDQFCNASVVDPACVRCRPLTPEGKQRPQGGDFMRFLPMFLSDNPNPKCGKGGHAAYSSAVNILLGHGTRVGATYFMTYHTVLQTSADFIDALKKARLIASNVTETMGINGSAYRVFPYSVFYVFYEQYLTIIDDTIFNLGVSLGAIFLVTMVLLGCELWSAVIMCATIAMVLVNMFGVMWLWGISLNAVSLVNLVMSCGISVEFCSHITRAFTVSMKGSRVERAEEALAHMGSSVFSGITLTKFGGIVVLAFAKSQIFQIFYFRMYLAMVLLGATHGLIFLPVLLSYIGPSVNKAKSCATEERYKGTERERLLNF

[9] = tested on: Ebola virus Zaire-Maying a encoding GFP; format: cell-based
[10] = tested on: EboV; set-up: species or system Ebola virus

binding of cleaved EboV GPΔTM to NPC1 membranes, sequence (O35604 23-1277 limits assumed, stated change not applied): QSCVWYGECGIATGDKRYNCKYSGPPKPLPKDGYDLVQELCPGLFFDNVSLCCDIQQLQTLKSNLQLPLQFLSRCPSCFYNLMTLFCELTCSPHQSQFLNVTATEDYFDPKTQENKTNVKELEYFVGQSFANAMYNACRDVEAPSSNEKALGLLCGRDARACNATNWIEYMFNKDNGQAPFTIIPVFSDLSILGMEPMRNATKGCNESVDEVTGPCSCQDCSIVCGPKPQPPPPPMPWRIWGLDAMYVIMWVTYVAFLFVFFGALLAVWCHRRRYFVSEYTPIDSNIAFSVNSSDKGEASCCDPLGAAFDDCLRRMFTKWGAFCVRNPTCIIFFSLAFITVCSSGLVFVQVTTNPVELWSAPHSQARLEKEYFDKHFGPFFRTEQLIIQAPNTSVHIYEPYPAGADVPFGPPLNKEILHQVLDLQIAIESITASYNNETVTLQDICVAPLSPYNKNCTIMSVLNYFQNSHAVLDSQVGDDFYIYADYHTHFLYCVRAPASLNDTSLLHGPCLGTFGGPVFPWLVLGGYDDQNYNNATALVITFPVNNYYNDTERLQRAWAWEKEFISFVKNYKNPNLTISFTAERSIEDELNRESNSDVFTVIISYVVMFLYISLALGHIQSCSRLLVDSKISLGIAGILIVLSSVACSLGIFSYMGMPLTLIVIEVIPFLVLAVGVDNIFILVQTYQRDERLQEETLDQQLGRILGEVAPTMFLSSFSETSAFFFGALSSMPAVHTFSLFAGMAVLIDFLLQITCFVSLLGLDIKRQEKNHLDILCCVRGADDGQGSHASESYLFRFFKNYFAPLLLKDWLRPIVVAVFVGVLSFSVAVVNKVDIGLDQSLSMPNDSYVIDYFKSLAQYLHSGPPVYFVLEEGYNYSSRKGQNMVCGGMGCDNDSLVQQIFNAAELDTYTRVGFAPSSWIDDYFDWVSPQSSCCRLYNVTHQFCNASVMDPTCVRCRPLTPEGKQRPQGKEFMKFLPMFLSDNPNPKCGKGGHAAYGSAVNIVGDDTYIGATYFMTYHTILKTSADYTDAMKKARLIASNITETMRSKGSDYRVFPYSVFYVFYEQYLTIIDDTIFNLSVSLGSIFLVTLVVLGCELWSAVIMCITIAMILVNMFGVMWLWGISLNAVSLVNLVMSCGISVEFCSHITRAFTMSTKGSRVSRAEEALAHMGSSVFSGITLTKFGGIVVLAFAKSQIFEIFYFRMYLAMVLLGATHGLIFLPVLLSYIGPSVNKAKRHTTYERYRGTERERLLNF

Q: For `O=C(CC12CC3CC(CC(C3)C1)C2)NCC(=O)N1CCN(Cc2ccccc2)CC1` [3.0, 2-((3r,5r,7r)-adamantan-1-yl)-N-(2-(4-benzylpiperazin-1-yl)-2-oxoethyl)acetamide], which “inhibition of infection by thermolysin-treated VSV EboV particles” value [1] is on record?
A: Its value is “inhibited infection”.

Q: What about the “reduction of EboV growth on Vero cells” value [2] of the same compound?
A: Its value is over 99%.

Q: What about the “inhibition of binding of cleaved EboV GPΔTM to NPC1 membranes” value [3] of the same compound?
A: Its value is “inhibited binding”.

Q: And the “inhibition of EboV GP infection in the screen” value [4]?
A: Its value is “more than 80%”.

Q: And the “inhibition of EboV GP-dependent infection of Vero cells” value [4]?
A: Its value is “inhibits infection”.

Q: What about the “inhibition of VSV G-dependent infection of Vero cells” value [5] of the same compound?
A: Its value is “not”.

Q: And the “effect on cathepsin B activity” value [6]?
A: The value was “no effect was observed”.

Q: And the “cholesterol uptake from LE/LY into cells” value [7]?
A: The value was “inhibit cholesterol uptake”.

Q: And the “induction of filipin-labelled cytoplasmic vacuoles” value [7]?
A: The value was “developed cytoplasmic vacuoles”.

Q: For `COC(=O)c1ccc(COc2ccccc2CN2CCN(C(=O)CNC(=O)CC34CC5CC(CC(C5)C3)C4)CC2)cc1` [compound 3.48, methyl 4-((2-((4-(2-(2-((3r,5r,7r)-adamantan-1-yl)acetamido)acetyl)piperazin-1-yl)methyl)phenoxy)methyl)benzoate], which “inhibition of infection by thermolysin-treated VSV EboV particles” value [1] is on record?
A: Its value is “inhibited infection”.

Q: What about the “inhibition of cross-linking of 3.105 to NPC1” value [8] of the same compound?
A: Its value is “inhibited”.

Q: What about the “inhibition of binding of cleaved EboV GPΔTM to NPC1 membranes” value [3] of the same compound?
A: The value was “blocked; also recorded: inhibited binding”.

Q: What about the “potency as measured by a single cycle of EboV GP-dependent infection, relative to 3.0” value [4] of the same compound?
A: The value was “increased the potency”.

Q: And the “effect on cathepsin B activity” value [6]?
A: The value was “no effect was observed”.

Q: And the “efficacy as measured by growth of EboV on Vero cells, relative to 3.0” value [9]?
A: The value was “increased”.

Q: What about the “cholesterol uptake from LE/LY into cells” value [7] of the same compound?
A: Its value is “inhibit cholesterol uptake”.

Q: What about the “induction of filipin-labelled cytoplasmic vacuoles” value [7] of the same compound?
A: The value was “developed cytoplasmic vacuoles”.

Q: How did the anti-EboV activity [10] turn out when `COc1ccc([C@@H]2Sc3ccccc3N(CCN(C)C)C(=O)[C@@H]2OC(C)=O)cc1` [diltiazen] was run?
A: The anti-EboV activity was “weak anti-EboV activity”.

Q: For `CCCCc1oc2ccccc2c1C(=O)c1cc(I)c(OCCN(CC)CC)c(I)c1` [amiodarone], which anti-EboV activity [10] is on record?
A: The anti-EboV activity was “weak anti-EboV activity”.

Q: With `CC/C(=C(\c1ccccc1)c1ccc(OCCN(C)C)cc1)c1ccccc1` [tamoxifen] as the compound, how does the anti-EboV activity [10] read?
A: Its anti-EboV activity is “weak anti-EboV activity”.

Q: `CCN(CC)CCO[C@H]1CC[C@@]2(C)C(=CC[C@@H]3[C@@H]2CC[C@]2(C)C(=O)CC[C@@H]32)C1` [U18666A, reference compound] was tested. Which “inhibition of binding of cleaved EboV GPΔTM to NPC1 membranes” value [3] did it give?
A: Its value is “does not inhibit binding”.

Q: For `C#Cc1ccc(COc2ccc(N=[N+]=[N-])cc2CN2CCN(C(=O)CNC(=O)CC34CC5CC(CC(C5)C3)C4)CC2)cc1` [compound 3.105, 2-((3r,5r,7r)-adamantan-1-yl)-N-(2-(4-(5-azido-2-((4-ethynylbenzyl)oxy)benzyl)piperazin-1-yl)-2-oxoethyl)acetamide], which “cross-linking to NPC1” value [8] is on record?
A: Its value is “cross-linked”.

Q: And the “inhibition of EboV GP-dependent infection of Vero cells” value [4]?
A: Its value is “has anti-EboV activity”.
